Assay results as given in US11180474B2 (BRISTOL-MYERS SQUIBB COMPANY, priority 2016, dated 2021).

Biological target: T1, human TLR7 (Homo sapiens, UniProt Q9NYK1)
T1 construct: host or cells: HEK-Blue cells
T1 sequence (Q9NYK1 27-1049): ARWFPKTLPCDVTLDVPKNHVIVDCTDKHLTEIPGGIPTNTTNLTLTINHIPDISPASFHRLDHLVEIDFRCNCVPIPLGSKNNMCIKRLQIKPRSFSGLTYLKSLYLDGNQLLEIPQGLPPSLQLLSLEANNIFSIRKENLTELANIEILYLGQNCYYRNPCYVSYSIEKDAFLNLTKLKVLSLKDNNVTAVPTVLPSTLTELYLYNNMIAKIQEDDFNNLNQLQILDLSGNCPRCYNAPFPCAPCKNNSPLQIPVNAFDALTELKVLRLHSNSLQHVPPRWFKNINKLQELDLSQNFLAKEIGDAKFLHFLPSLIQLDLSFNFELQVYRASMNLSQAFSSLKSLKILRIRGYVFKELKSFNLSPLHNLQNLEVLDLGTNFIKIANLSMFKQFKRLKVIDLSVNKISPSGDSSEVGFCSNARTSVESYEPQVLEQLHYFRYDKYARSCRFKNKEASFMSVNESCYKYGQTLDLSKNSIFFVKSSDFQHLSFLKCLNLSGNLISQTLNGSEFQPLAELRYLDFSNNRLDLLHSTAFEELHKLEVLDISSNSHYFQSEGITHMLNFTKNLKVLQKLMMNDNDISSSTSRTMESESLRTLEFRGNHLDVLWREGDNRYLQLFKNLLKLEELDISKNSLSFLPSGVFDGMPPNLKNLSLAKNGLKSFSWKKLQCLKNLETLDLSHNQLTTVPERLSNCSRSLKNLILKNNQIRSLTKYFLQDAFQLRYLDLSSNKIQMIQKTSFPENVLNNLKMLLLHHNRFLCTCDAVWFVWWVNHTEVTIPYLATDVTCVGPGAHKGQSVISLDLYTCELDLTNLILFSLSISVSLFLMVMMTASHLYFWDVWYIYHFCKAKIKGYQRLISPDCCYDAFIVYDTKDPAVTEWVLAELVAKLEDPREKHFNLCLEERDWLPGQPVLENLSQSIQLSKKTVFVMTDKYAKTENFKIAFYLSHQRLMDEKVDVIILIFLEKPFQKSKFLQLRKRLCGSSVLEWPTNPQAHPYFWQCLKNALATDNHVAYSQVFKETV
Test: TLR7 inhibition reporter assay (HEK-Blue cells, SEAP reporter, gardiquimod stimulation)
Format: cell-based
Conditions: HEK-Blue cells overexpressing human TLR7, gardiquimod 7.5 μM
Procedure, shortened: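 Cells (15000/well for TLR7, 20,000 for TLR8) were treated with compounds over 0.05 nM-50 μM final. After 22 h at 37° C, 5% CO2, SEAP was measured with HEK-Blue Detection reagent; percent inhibition was taken as reduction of agonist-plus-DMSO signal relative to a known inhibitor.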

| SMILES | IC50 [µM] |
| --- | --- |
| CCc1c(-c2ccc(OC)c(OC)c2)[nH]c2ccc(C3CCN(C(=O)CN4CCCC(C(=O)O)C4)CC3)cc12 (racemic) [Example 176, 1-(2-(4-(2-(3,4-dimethoxyphenyl)-3-ethyl-1H-indol-5-yl)piperidin-1-yl)-2-oxoethyl)piperidine-3-carboxylic acid] | 8.92 |
| CCc1c(-c2ccc(OC)c(OC)c2)[nH]c2ccc(C3CCN(C4CCN(Cc5ccc(-c6ccccc6)s5)CC4)CC3)cc12 [Example 141, 2-(3,4-dimethoxyphenyl)-3-ethyl-5-(1′-((5-phenylthiophen-2-yl)methyl)-[1,4′-bipiperidin]-4-yl)-1H-indole] | 3.74 |
| CCc1c(-c2ccc(OC)c(OC)c2)[nH]c2ccc(C3CCN(C4CCN(Cc5ccn(C)n5)CC4)CC3)cc12 [Example 133, 2-(3,4-dimethoxyphenyl)-3-ethyl-5-(1′-((1-methyl-1H-pyrazol-3-yl)methyl)-[1,4′-bipiperidin]-4-yl)-1H-indole] | 0.208 |
| COc1ccc(-c2[nH]c3ccc(C4CCN(C5CCN(CC(C)C)CC5)CC4)cc3c2C)cc1OC [Example 6, 2-(3,4-dimethoxyphenyl)-5-(1′-isobutyl-[1,4′-bipiperidin]-4-yl)-3-methyl-1H-indole] | 1.23 |
| CCc1c(-c2ccc(OC)c(OC)c2)[nH]c2ccc(C3CCN(C(=O)CN4CCCC(C(=O)N(CC)CC)C4)CC3)cc12 (stereo not shown) [Example 168, 1-(2-(4-(2-(3,4-dimethoxyphenyl)-3-ethyl-1H-indol-5-yl)piperidin-1-yl)-2-oxoethyl)-N,N-diethylpiperidine-3-carboxamide] | 0.142 |
| CCc1c(-c2ccc(OC)c(OC)c2)[nH]c2ccc(C3CCN(C(=O)CNCCO)CC3)cc12 [Example 159, 1-(4-(2-(3,4-dimethoxyphenyl)-3-ethyl-1H-indol-5-yl)piperidin-1-yl)-2-((2-hydroxyethyl)amino) ethan-1-one] | 0.042 |
| CCc1c(-c2ccc(OC)c(OC)c2)[nH]c2ccc(C3CCN(C4CCN(Cc5coc(C)n5)CC4)CC3)cc12 [Example 126, 4-((4-(2-(3,4-dimethoxyphenyl)-3-ethyl-1H-indol-5-yl)-[1,4′-bipiperidin]-1′-yl)methyl)-2-methyloxazole] | 0.92 |

Results, then the compound that gave them:

| IC50 [µM] | SMILES |
| --- | --- |
| 0.052 | CCc1c(-c2ccc(OC)c(OC)c2)[nH]c2ccc(C3CCN(C(=O)CN(C)C)CC3)cc12 [Example 181, 1-(4-(2-(3,4-dimethoxyphenyl)-3-ethyl-1H-indol-5-yl)piperidin-1-yl)-2-(dimethylamino) ethanone] |
| 0.036 | COc1ccc(-c2[nH]c3ccc(C4CCN(C(=O)CNC5CCC(N(C)C)CC5)CC4)cc3c2C(C)C)cc1OC (stereo not shown) [Example 215, 1-(4-(2-(3,4-dimethoxyphenyl)-3-isopropyl-1H-indol-5-yl)piperidin-1-yl)-2-((4-(dimethylamino)cyclohexyl)amino)ethan-1-one] |
| 0.096 | CCc1c(-c2ccc(OC)c(OC)c2)[nH]c2ccc(C3CCN(C(=O)C4CCNCC4)CC3)cc12 [Example 186, (4-(2-(3,4-dimethoxyphenyl)-3-ethyl-1H-indol-5-yl)piperidin-1-yl)(piperidin-4-yl) methanone] |
| 0.533 | CCc1c(-c2ccc(OC)c(OC)c2)[nH]c2ccc(C3CCN(C(=O)c4ccncc4)CC3)cc12 [Example 183, (4-(2-(3,4-dimethoxyphenyl)-3-ethyl-1H-indol-5-yl)piperidin-1-yl)(pyridin-4-yl) methanone] |
| 0.025 | COc1ccc(-c2[nH]c3ccc(C4CCN(C(=O)CNC(CO)CO)CC4)cc3c2C(C)C)cc1OC [Example 220, 2-((1,3-dihydroxypropan-2-yl)amino)-1-(4-(2-(3,4-dimethoxyphenyl)-3-isopropyl-1H-indol-5-yl)piperidin-1-yl)ethan-1-one] |
| 0.191 | CCc1c(-c2ccc(OC)c(OC)c2)[nH]c2ccc(C3CCN(C(=O)C4CCCNC4)CC3)cc12 (stereo not shown) [Example 184, (4-(2-(3,4-dimethoxyphenyl)-3-ethyl-1H-indol-5-yl)piperidin-1-yl)(piperidin-3-yl)methanone] |
